Source: patent US20180353460A1, “METHODS OF TREATING UROLOGICAL DISORDERS USING SARMs” (priority 2014, published 2018)
Several values for one entry are separate records, joined by “and”; a condition that tells them apart may be missing. Equal values may be shown once.

What was measured:
Type in all cases: in vivo, rat
[1] = test system: prostate, seminal vesicles and levator ani muscle; assay: Androgenic and anabolic activity in castrated immature male rats, subcutaneous osmotic pumps, 14 days; conditions: castrated rats, 14 days, FIG. 2
Experimental: Immature male Sprague-Dawley rats, weighing 90 to 100 g, were purchased from Harlan Biosciences (Indianapolis, Ind.). The animals were maintained on a 12 hour light-dark cycle with food and water available ad libitum.
Rats were randomly distributed into treatment groups groups. One day prior to the start of drug treatment, animals were individually removed from the cage, weighed and anesthetized with an intraperitoneal dose of ketamine/xylazine (87/13 mg/kg; approximately 1 mL per kg). When appropriately anesthetized (i.e., no response to toe pinch), the animals' ears were marked for identification purposes. Animals were then placed on a sterile pad and their abdomen and scrotum washed with betadine and 70% alcohol. The testes were removed via a midline scrotal incision, with sterile suture being used to ligate supra-testicular tissue prior to surgical removal of each testis. The surgical wound site was closed with sterile stainless steel wound clips, and the site cleaned with betadine. The animals were allowed to recover on a sterile pad (until able to stand) and then returned to their cage.
Twenty-four hours later, animals were re-anesthetized with ketamine/xylazine, and an Alzet osmotic pump(s) (model 2002) was placed subcutaneouly in the scapular region. In this instance, the scapular region was shaved and cleaned (betadine and alcohol) and a small incision (1 cm) made using a sterile scalpel. The osmotic pump was inserted and the wound closed with a sterile stainless steel wound clip. Animals were allowed to recover and were returned to their cage. Osmotic pumps contained the appropriate treatment dissolved in polyethylene glycol 300 (PEG300). Osmotic pumps were filled with the appropriate solution one day prior to implantation. Animals were monitored daily for signs of acute toxicity to drug treatment (e.g., lethargy, rough coat).
After 14 days of drug treatment, rats were anesthetized with ketamine/xylazine. Animals were then sacrificed by exsanguinations under anesthesia. A blood sample was collected by venipuncture of the abdominal aorta, and submitted for complete blood cell analysis. A portion of the blood was placed in a separate tube, centrifuged at 12,000 g for 1 minute, and the plasma layer removed and frozen at −20° C. The ventral prostates, seminal vesicles, levator ani muscle, liver, kidneys, spleen, lungs, and heart were removed, cleared of extraneous tissue, weighed, and placed in vials containing 10% neutral buffered formalin. Preserved tissues were sent for histopathological analysis.
For data analysis, the weights of all organs were normalized to body weight, and analyzed for any statistical significant difference by single-factor ANOVA. The weights of prostate and seminal vesicle were used as indexes for evaluation of androgenic activity, and the levator ani muscle weight was used to evaluate the anabolic activity.

[2] = test system: prostate, seminal vesicles and levator ani muscle; assay: Androgenic and anabolic effects in intact, hemi-orchidectomized and castrated rats, subdermal osmotic pumps, 14 days; conditions: 0.5 mg/day; for Levator Ani weight / prostate weight / seminal vesicle weight: n = 5
Experimental: Male Sprague-Dawley rats were purchased from Harlan Biosciences (Indianapolis, Ind.). The animals were maintained on a 12 h cycle of light and dark with food and water available ad libitum. All animal studies were reviewed and approved. Immature male Sprague-Dawley rats weighing 187 to 214 g were randomly distributed into 9 groups of 5 animals. One day before the initiation of drug treatment, groups 4 through 6 and groups 7 through 9 received unilateral or bilateral orchidectomy, respectively, via a midline scrotal incision. […] All drugs given to animals were freshly prepared as solutions in polyethylene glycol 300 (PEG 300). Groups 4 and 7 received treatment with vehicle alone (i.e., PEG 300). […] Animals in groups 2, 5, and 8 received compound of Formula XII (0.5 mg/day) via implantation of subdermal osmotic pumps. After 14 days of drug treatment, rats were weighed, anesthetized, and sacrificed. The ventral prostates, seminal vesicles, and levator ani muscle were removed and weighed. Osmotic pumps were also removed from animals to check for correct pump operation. The weights of all organs were normalized to body weight, and analyzed for any statistically significant differences between groups using single-factor ANOVA with the alpha value set a priori at p<0.05. The weights of prostates and seminal vesicles were used as indices for evaluation of androgenic activity, and the levator ani muscle weight was used to evaluate the anabolic activity. Statistical analyses of parameters from complete blood count or serum chemical profiling, wherever applicable, were performed by single-factor ANOVA with the alpha value set a priori at p<0.05.

[3] = test system: prostate, seminal vesicles and levator ani muscle; assay: Androgenic and anabolic activity in castrated (ORX) male rats, daily oral gavage for fourteen days; conditions: castrated rats, comparators
Experimental: Male Sprague-Dawley rats weighing approximately 200 g were purchased from Harlan Bioproducts for Science (Indianapolis, Ind.). […] The anabolic and androgenic activity of compound of Formula VIII in intact animals was tested, as well as a dose response evaluation in acutely orchidectomized (ORX) animals. Regenerative effects of the compound of Formula VIII in chronically (9 days) ORX rats was similarly evaluated.
The test article for this study was weighed and dissolved in 10% DMSO (Fisher) diluted with PEG 300 (Acros Organics, NJ) for preparation of the appropriate dosage concentrations. […] Animals were randomly assigned to one of seven groups consisting of 4 to 5 animals per group. Control groups (intact and ORX) were administered vehicle daily. Compound of Formula VIII was administered via oral gavage at doses of 0.01, 0.03, 0.1, 0.3, 0.75, and 1 mg/day to both intact and ORX groups. Where appropriate, animals were castrated on day one of the study. Treatment with compound of Formula VIII began nine days post ORX and was administered daily via oral gavage for fourteen days.
(§1) In addition, ventral prostate, seminal vesicles, and levator ani muscle were removed, individually weighed, normalized to body weight, and expressed as a percentage of intact control. Student's T-test was used to compare individual dose groups to the intact control group. Significance was defined a priori as a P-value <0.05. Ventral prostate and seminal vesicle weights were evaluated as a measure of androgenic activity, whereas levator ani muscle weight was evaluated as a measure of anabolic activity. Blood was collected from the abdominal aorta, centrifuged, and sera were frozen at −80° C. prior to determination of serum hormone levels. Serum luteinizing hormone (LH) and follicle stimulating hormone (FSH) concentrations were determined.
Male Sprague-Dawley rats weighing approximately 200 g were purchased from Harlan Bioproducts for Science (Indianapolis, Ind.). […] Anabolic and androgenic activity of compound of Formula IX in intact animals was evaluated, and the dose response in acutely orchidectomized (ORX) animals was evaluated as well. Regenerative effects of compound of Formula IX in chronically (9 days) ORX rats were also assessed.
The compound was weighed and dissolved in 10% DMSO (Fisher) diluted with PEG 300 (Acros Organics, NJ) for preparation of the appropriate dosage concentrations. […] Intact and ORX animals were randomly assigned to one of seven groups consisting of 4 to 5 animals per group. Control groups (intact and ORX) were administered vehicle daily. Compound of Formula IX was administered via oral gavage at doses of 0.01, 0.03, 0.1, 0.3, 0.75, and 1 mg/day to both intact and ORX groups.
as §1, with “Castrated animals (on day one of the study) were randomly assigned to dose groups (4-5 animals/group) of 0.01, 0.03, 0.1, 0.3, 0.75, and 1 mg/day, for dose-response evaluation. Dosing began nine days post ORX and was administered daily via oral gavage for fourteen days. […] In” for “In”, “As a measure of androgenic activity, ventral” for “Ventral”, “evaluated,” for “evaluated as a measure of androgenic activity,”, “lutenizing” for “luteinizing”
Male Sprague-Dawley rats weighing approximately 200 g were purchased from Harlan Bioproducts for Science (Indianapolis, Ind.).

[4] = test system: prostate, seminal vesicles and levator ani muscle; assay: Androgenic and anabolic activity in intact male rats, daily oral gavage
Experimental: Male Sprague-Dawley rats weighing approximately 200 g were purchased from Harlan Bioproducts for Science (Indianapolis, Ind.). The animals were maintained on a 12 h light/dark cycle with food (7012C LM-485 Mouse/Rat Sterilizable Diet, Harlan Teklad, Madison, Wis.) and water available ad libitum. The anabolic and androgenic activity of compound of Formula VIII in intact animals was tested, as well as a dose response evaluation in acutely orchidectomized (ORX) animals. Regenerative effects of the compound of Formula VIII in chronically (9 days) ORX rats was similarly evaluated.
The test article for this study was weighed and dissolved in 10% DMSO (Fisher) diluted with PEG 300 (Acros Organics, NJ) for preparation of the appropriate dosage concentrations. The animals were housed in groups of 2 to 3 animals per cage. Animals were randomly assigned to one of seven groups consisting of 4 to 5 animals per group. Control groups (intact and ORX) were administered vehicle daily. Compound of Formula VIII was administered via oral gavage at doses of 0.01, 0.03, 0.1, 0.3, 0.75, and 1 mg/day to both intact and ORX groups. Where appropriate, animals were castrated on day one of the study. Treatment with compound of Formula VIII began nine days post ORX and was administered daily via oral gavage for fourteen days.
as §1, with “The animals were sacrificed under anesthesia (ketamine/xyalzine, 87:13 mg/kg) and body weights were recorded. In” for “In”
Male Sprague-Dawley rats weighing approximately 200 g were purchased from Harlan Bioproducts for Science (Indianapolis, Ind.). The animals were maintained on a 12 h light/dark cycle with food (7012C LM-485 Mouse/Rat Sterilizable Diet, Harlan Teklad, Madison, Wis.) and water available ad libitum. Anabolic and androgenic activity of compound of Formula IX in intact animals was evaluated, and the dose response in acutely orchidectomized (ORX) animals was evaluated as well. Regenerative effects of compound of Formula IX in chronically (9 days) ORX rats were also assessed.
The compound was weighed and dissolved in 10% DMSO (Fisher) diluted with PEG 300 (Acros Organics, NJ) for preparation of the appropriate dosage concentrations. The animals were housed in groups of 2 to 3 animals per cage. Intact and ORX animals were randomly assigned to one of seven groups consisting of 4 to 5 animals per group. Control groups (intact and ORX) were administered vehicle daily. Compound of Formula IX was administered via oral gavage at doses of 0.01, 0.03, 0.1, 0.3, 0.75, and 1 mg/day to both intact and ORX groups.
Castrated animals (on day one of the study) were randomly assigned to dose groups (4-5 animals/group) of 0.01, 0.03, 0.1, 0.3, 0.75, and 1 mg/day, for dose-response evaluation. Dosing began nine days post ORX and was administered daily via oral gavage for fourteen days. The animals were sacrificed under anesthesia (ketamine/xyalzine, 87:13 mg/kg) after a 14-day dosing regimen, and body weights were recorded. In addition, ventral prostate, seminal vesicles, and levator ani muscle were removed, individually weighed, normalized to body weight, and expressed as a percentage of intact control. Student's T-test was used to compare individual dose groups to the intact control group. […]

Row | SMILES | Levator Ani weight ([2]; Castrated rats) | prostate weight ([2]; Castrated rats) | seminal vesicle weight ([2]; Castrated rats) | Levator Ani weight ([2]; Hemi-castrated rats) | prostate weight ([2]; Hemi-castrated rats) | seminal vesicle weight ([2]; Hemi-castrated rats) | Levator Ani weight ([2]; Intact rats) | prostate weight ([2]; Intact rats) | seminal vesicle weight ([2]; Intact rats) | maximal stimulation of levator ani muscle weight [3] | other results
1 | CCC(=O)O[C@H]1CC[C@H]2[C@@H]3CCC4=CC(=O)CC[C@]4(C)[C@H]3CC[C@]12C [TP, testosterone propionate, reference compound] | 87.27 ± 10.25 % of intact control | 76.78 ± 10.43 % of intact control | 63.48 ± 17.05 % of intact control | 98.63 ± 10.47 % of intact control | 98.57 ± 7.98 % of intact control | 114.19 ± 23.81 % of intact control | 95.61 ± 9.34 % of intact control | 97.45 ± 10.82 % of intact control | 103.95 ± 13.23 % of intact control | 104% | weights of prostate, seminal vesicle and levator ani muscle [1]: increased the weights of prostate, seminal vesicle, and levator ani muscle in castrated rats in a dose-dependent manner
2 | CC(=O)Nc1ccc(OC[C@](C)(O)C(=O)Nc2ccc([N+](=O)[O-])c(C(F)(F)F)c2)cc1 [XII, S-3-(4-acetylaminophenoxy)-2-hydroxy-2-methyl-N-(4-nitro-3-trifluoromethylphenyl) propionamide] | 100.65 ± 10.86 % of intact control | 32.55 ± 11.65 % of intact control | 16.47 ± 5.21 % of intact control | 108 % of intact control and 108.10 ± 8.92 % of intact control | 75 % of intact control and 74.69 ± 8.44 % of intact control | 79 % of intact control and 78.55 ± 13.58 % of intact control | 109.15 ± 14.68 % of intact control | 79 % of intact control and 79.41 ± 9.32 % of intact control | 90.54 ± 12.10 % of intact control | 101% | adverse pharmacologic effects [2]: No adverse pharmacologic effects were observed
3 | C[C@](O)(COc1ccc(Cl)c(F)c1)C(=O)Nc1ccc(C#N)c(C(F)(F)F)c1 [XIV, (S)-3-(4-chloro-3-fluorophenoxy)-N-(4-cyano-3-(trifluoromethyl)phenyl)-2-hydroxy-2-methylpropanamide] |  |  |  |  |  |  |  |  |  |  | levator ani muscle weight ([4]; 0.01 mg/day): 100%±10%; prostate weight ([4]; 0.01 mg/day): 117%±20%; levator ani muscle weight ([4]; 0.03 mg/day): 98%±7%; prostate weight ([4]; 0.03 mg/day): 98%±15%; levator ani muscle weight ([4]; 0.1 mg/day): 110%±5%; prostate weight ([4]; 0.1 mg/day): 82%±20%; levator ani muscle weight ([4]; 0.3 mg/day): 110%±5%; prostate weight ([4]; 0.3 mg/day): 62%±5%; levator ani muscle weight ([4]; 0.75 mg/day): 125%±10%; prostate weight ([4]; 0.75 mg/day): 107%±30%; levator ani muscle weight ([4]; 1 mg/day): 129%±10%; prostate weight ([4]; 1 mg/day): 110%±14%
